The structures appear in SMILES notation.

This test has as its target ATX (human His-tagged) (Homo sapiens (Human), UniProt Q13822). The test is described as follows: Human ATX enzyme inhibition assay (fluorescence quenching, MR121 substrate). It counts as biochemical. To be noted: 30 nM ATX, 1 μM MR121 substrate, 30° C., pH 8.0. The procedure: Human ATX Enzyme Inhibition Assay
Assay working solutions were made as follows:
Assay buffer (50 mM Tris-HCl, 140 mM NaCl, 5 mM KCl, 1 mM CaCl2, 1 mM MgCl2, 0.01% Triton-X-100, pH 8.0;
MR121 substrate solution: MR121 substrate stock solution (800 μM MR121 substrate in DMSO), diluted to 2-5× final concentration in assay buffer.
10 μL of MR121 substrate solution was added (1 μM final concentration), mixed 30 times and then incubated for 15 minutes at 30° C.
By IC50 is commonly meant the concentration that inhibits the measured activity by half. Lower therefore signals inhibition by little substance. `CC(C)c1cc2c(cc1OCC(=O)N1CC[C@@H]3CN(C(=O)c4ccc5[nH]nnc5c4)C[C@@H]3CC1)C(C)(C)CC2` [Example 1.39, 1-((3aR,8aS)-2-(1H-benzo[d][1,2,3]triazole-5-carbonyl)octahydropyrrolo[3,4-d]azepin-6(7H)-yl)-2-(6-isopropyl-3,3-dimethyl-2,3-dihydro-1H-inden-5-yloxy)ethanone] registered a concentration for half-maximal inhibition (IC50) of 7 nM.

On to `O=C(COc1cc(Cl)ccc1C(F)(F)F)N1CC[C@@H]2CN(C(=O)c3ccc4[nH]nnc4c3)C[C@@H]2CC1` [Example 1.41, 1-((3aR,8aS)-2-(1H-benzo[d][1,2,3]triazole-5-carbonyl)octahydropyrrolo[3,4-d]azepin-6(7H)-yl)-2-(5-chloro-2-(trifluoromethyl)phenoxy)ethanone], for which half-maximal inhibition (IC50) required 2 nM.

Turning to `COc1ccc(OCC(=O)N2CC[C@@H]3CN(C(=O)c4ccc5[nH]nnc5c4)C[C@@H]3CC2)c(C(C)(C)C)c1` [Example 1.42, 1-[(3aS,8aR)-2-(1H-benzotriazole-5-carbonyl)-1,3,3a,4,5,7,8,8a-octahydropyrrolo[3,4-d]azepin-6-yl]-2-(2-tert-butyl-4-methoxyphenoxy)ethanone], the half-inhibitory concentration (IC50) is 7 nM.

`CC(C)c1cc(C#N)ccc1OCC(=O)N1CC[C@@H]2CN(C(=O)c3ccc4[nH]nnc4c3)C[C@@H]2CC1` [Example 1.43, 4-[2-[(3aS,8aR)-2-(1H-benzotriazole-5-carbonyl)-1,3,3a,4,5,7,8,8a-octahydropyrrolo[3,4-d]azepin-6-yl]-2-oxoethoxy]-3-propan-2-ylbenzonitrile]: the IC50 was determined as 14 nM.

The compound `O=C(CCc1ccc(OCC(F)(F)F)cc1F)N1CC[C@@H]2CN(C(=O)c3ccc4[nH]nnc4c3)C[C@@H]2CC1` [Example 1.45, 1-[(3aS,8aR)-2-(1H-benzotriazole-5-carbonyl)-1,3,3a,4,5,7,8,8a-octahydropyrrolo[3,4-d]azepin-6-yl]-3-[2-fluoro-4-(2,2,2-trifluoroethoxy)phenyl]propan-1-one] came in with an IC50 of 7 nM.

`O=C(OCc1ccc(OCC(F)(F)F)c(F)c1)N1CC[C@@H]2CN(C(=O)c3ccc4[nH]nnc4c3)C[C@@H]2CC1` [Example 1.46, (3aS,8aR)-2-(1H-benzotriazole-5-carbonyl)-octahydro-pyrrolo[3,4-d]azepine-6-carboxylic acid 3-fluoro-4-(2,2,2-trifluoro-ethoxy)-benzyl ester] came in with an IC50 of 2 nM.

The compound `O=C(OCc1ccc(OCC(F)(F)F)cc1F)N1CC[C@@H]2CN(C(=O)c3ccc4[nH]nnc4c3)C[C@@H]2CC1` [Example 1.47, (3aS,8aR)-2-(1H-benzotriazole-5-carbonyl)-octahydro-pyrrolo[3,4-d]azepine-6-carboxylic acid 2-fluoro-4-(2,2,2-trifluoro-ethoxy)-benzyl ester] came in with a concentration for half-maximal inhibition (IC50) of 2 nM.

For the compound `O=C(OCc1ccc(OCC(F)(F)F)cc1)N1CC[C@@H]2CN(C(=O)c3ccc4[nH]nnc4c3)C[C@@H]2CC1` [Example 1.48, (3aS,8aR)-2-(1H-benzotriazole-5-carbonyl)-octahydro-pyrrolo[3,4-d]azepine-6-carboxylic acid 4-(2,2,2-trifluoro-ethoxy)-benzyl ester], the IC50 came to 7.5 nM.

`O=C(OCc1ccc(OC(F)(F)F)cc1)N1C[C@@H]2CN(C(=O)c3cnc4[nH]nnc4c3)C[C@H]2C1` [Example 1.49, (3aS,6aS)-5-(3H-[1,2,3]triazolo[4,5-b]pyridine-6-carbonyl)-hexahydro-pyrrolo[3,4-c]pyrrole-2-carboxylic acid 4-trifluoromethoxy-benzyl ester]: the IC50 came to 218 nM.

`O=C(CCc1ccc(OC(F)(F)F)cc1)N1C[C@@H]2CN(C(=O)c3ccc4[nH]nnc4n3)C[C@H]2C1` [Example 1.50, 1-[(3aR,6aR)-5-(1H-triazolo[4,5-b]pyridine-5-carbonyl)-1,3,3a,4,6,6a-hexahydropyrrolo[3,4-c]pyrrol-2-yl]-3-[4-(trifluoromethoxy)phenyl]propan-1-one]: the 50% inhibitory concentration (IC50) came to 17 nM.

Regarding `O=C(OCc1ccc(OC(F)(F)F)cc1)N1C[C@@H]2CN(C(=O)c3cc4nn[nH]c4cn3)C[C@H]2C1` [Example 1.51, (3aS,6aS)-5-(3H-[1,2,3]triazolo[4,5-c]pyridine-6-carbonyl)-hexahydro-pyrrolo[3,4-c]pyrrole-2-carboxylic acid 4-trifluoromethoxy-benzyl ester], the IC50 was determined as 41 nM.

For `O=C(OCc1ccc(OC(F)(F)F)cc1)N1C[C@@H]2CN(C(=O)c3ccc4[nH]nnc4c3F)C[C@H]2C1` [Example 1.52, (3aS,6aS)-5-(4-fluoro-1H-benzotriazole-5-carbonyl)-hexahydro-pyrrolo[3,4-c]pyrrole-2-carboxylic acid 4-trifluoromethoxy-benzyl ester], half-maximal inhibition (IC50) required 16 nM.

As for `O=C(OCc1ccc(OC(F)(F)F)cc1)N1C[C@@H]2CN(C(=O)c3cc(F)c4[nH]nnc4c3)C[C@H]2C1` [Example 1.53, (3aS,6aS)-5-(7-fluoro-1H-benzotriazole-5-carbonyl)-hexahydro-pyrrolo[3,4-c]pyrrole-2-carboxylic acid 4-trifluoromethoxy-benzyl ester], the IC50 was 52 nM.

In turn, `O=C(OCc1ccc(OC(F)(F)F)cc1)N1C[C@@H]2CN(C(=O)c3cc4nn[nH]c4cc3F)C[C@H]2C1` [Example 1.54, (3aS,6aS)-5-(6-fluoro-1H-benzotriazole-5-carbonyl)-hexahydro-pyrrolo[3,4-c]pyrrole-2-carboxylic acid 4-trifluoromethoxy-benzyl ester] showed a concentration for half-maximal inhibition (IC50) of 22 nM.

For the compound `O=C(OCc1ccc(OC(F)(F)F)cc1)N1C[C@@H]2CN(C(=O)c3ccc4[nH]nnc4c3Cl)C[C@H]2C1` [Example 1.55, (3aS,6aS)-5-(4-chloro-1H-benzotriazole-5-carbonyl)-hexahydro-pyrrolo[3,4-c]pyrrole-2-carboxylic acid 4-trifluoromethoxy-benzyl ester], the IC50 was determined as 14 nM.

With `O=C(CCc1ccc(OC(F)(F)F)cc1)N1C[C@@H]2CN(C(=O)c3ccc4[nH]nnc4c3F)C[C@H]2C1` [Example 1.59, 1-[(3aR,6aR)-5-(4-fluoro-1H-benzotriazole-5-carbonyl)-hexahydro-pyrrolo[3,4-c]pyrrol-2-yl]-3-(4-trifluoromethoxy-phenyl)-propan-1-one], the IC50 was determined as 6 nM.

The compound `CCOc1cc(C(=O)N2C[C@@H]3CN(C(=O)[C@@H]4CCc5[nH]nnc5C4)C[C@H]3C2)nc2ccccc12` [Example 1.60, (4-ethoxyquinolin-2-yl)((3aS,6aS)-5-((R)-4,5,6,7-tetrahydro-1H-benzo[d][1,2,3]triazole-5-carbonyl)hexahydropyrrolo[3,4-c]pyrrol-2(1H)-yl)methanone] came in with a concentration for half-maximal inhibition (IC50) of 12 nM.

In turn, `CCOc1cc(C(=O)N2C[C@@H]3CN(C(=O)c4ccc5[nH]nnc5c4F)C[C@H]3C2)nc2ccccc12` [Example 1.61, (4-ethoxyquinolin-2-yl)((3aS,6aS)-5-(4-fluoro-1H-benzo[d][1,2,3]triazole-5-carbonyl)hexahydropyrrolo[3,4-c]pyrrol-2(1H)-yl)methanone] gave a half-inhibitory concentration (IC50) of 21 nM.

With `O=C(OCc1cc(Cl)cc(Cl)c1)N1C[C@@H]2CN(C(=O)c3ccc4[nH]c(=O)oc4c3)C[C@@H]2C1` [Example 2.01, (3aR,6aS)-3,5-dichlorobenzyl 5-(2-oxo-2,3-dihydrobenzo[d]oxazole-6-carbonyl)hexahydropyrrolo[3,4-c]pyrrole-2(1H)-carboxylate], the IC50 was determined as 5 nM.

Turning to `O=C(/C=C/c1ccc(OC(F)(F)F)cc1)N1CC[C@@H]2CN(C(=O)c3ccc4[nH]c(=O)oc4c3)C[C@@H]2CC1` [Example 2.02, 6-{(3aS,8aR)-6-[(E)-3-(4-trifluoromethoxy-phenyl)-acryloyl]-octahydro-pyrrolo[3,4-d]azepine-2-carbonyl}-3H-benzooxazol-2-one], half-maximal inhibition (IC50) required 6 nM.

Compound `O=C(CCc1ccc(OC(F)(F)F)cc1)N1C[C@@H]2CN(C(=O)c3ccc4[nH]c(=O)oc4c3)C[C@H]2C1` [Example 2.03, 6-[(3aR,6aR)-2-[3-[4-(trifluoromethoxy)phenyl]propanoyl]-1,3,3a,4,6,6a-hexahydropyrrolo[3,4-c]pyrrole-5-carbonyl]-3H-1,3-benzoxazol-2-one] registered a half-maximal inhibitory concentration (IC50) of 5 nM.

`O=C(OCc1ccc(OC(F)(F)F)cc1)N1C[C@@H]2CN(C(=O)c3ccc4[nH]c(=O)oc4c3)C[C@H]2C1` [Example 2.04, (3aS,6aS)-5-(2-oxo-2,3-dihydro-benzooxazole-6-carbonyl)-hexahydro-pyrrolo[3,4-c]pyrrole-2-carboxylic acid 4-trifluoromethoxy-benzyl ester]: the IC50 came out at 8 nM.

Compound `O=C(OCc1cc(Cl)cc(Cl)c1)N1C[C@H]2C[C@H](Oc3ccc4[nH]c(=O)oc4c3)C[C@H]2C1` [Example 3, (3aR,5s,6aS)-3,5-Dichlorobenzyl 5-(2-oxo-2,3-dihydrobenzo[d]oxazol-6-yloxy)hexahydrocyclopenta[c]pyrrole-2(1H)-carboxylate] returned an IC50 of 36 nM.

Consider `O=C(OCc1cc(Cl)cc(Cl)c1)N1C[C@H]2C[C@@H](Oc3ccc4[nH]c(=O)oc4c3)C[C@H]2C1` [Example 3.01, (3aR,5r,6aS)-3,5-Dichlorobenzyl 5-(2-oxo-2,3-dihydrobenzo[d]oxazol-6-yloxy)hexahydrocyclopenta[c]pyrrole-2(1H)-carboxylate], for which the midpoint of inhibition, the IC50, lay at 1090 nM.

Regarding `O=C(OCc1cc(Cl)cc(Cl)c1)N1C[C@@H]2CN(C(=O)c3ccc4[nH]nnc4c3)C[C@H]2C1` [Example 4, (3aS,6aS)-3,5-Dichlorobenzyl 5-(1H-benzo[d][1,2,3]triazole-5-carbonyl)hexahydro-pyrrolo[3,4-c]pyrrole-2(1H)-carboxylate], 8 nM corresponded to half-maximal inhibition (IC50).
